Reference: ChEMBL document CHEMBL3431459, “Roche carnitine palmitoyltransferase modulator screening data (supplementary data associated with the publication CHEMBL2216752)”
Values after ≈ are worked out from the molar mass of the structure shown.

Legend:
[1] = SUPPLEMENTARY: PAMPA permeability assay; format: physicochemical; conditions: read-out: Permeability
[2] = molecular target: T1, Carnitine O-palmitoyltransferase 1, liver isoform (Rattus norvegicus, UniProt P32198); assay: SUPPLEMENTARY: Inhibition of Carnitine palmitoyltransferase 1, liver isoform
T1 sequence (P32198 whole entry): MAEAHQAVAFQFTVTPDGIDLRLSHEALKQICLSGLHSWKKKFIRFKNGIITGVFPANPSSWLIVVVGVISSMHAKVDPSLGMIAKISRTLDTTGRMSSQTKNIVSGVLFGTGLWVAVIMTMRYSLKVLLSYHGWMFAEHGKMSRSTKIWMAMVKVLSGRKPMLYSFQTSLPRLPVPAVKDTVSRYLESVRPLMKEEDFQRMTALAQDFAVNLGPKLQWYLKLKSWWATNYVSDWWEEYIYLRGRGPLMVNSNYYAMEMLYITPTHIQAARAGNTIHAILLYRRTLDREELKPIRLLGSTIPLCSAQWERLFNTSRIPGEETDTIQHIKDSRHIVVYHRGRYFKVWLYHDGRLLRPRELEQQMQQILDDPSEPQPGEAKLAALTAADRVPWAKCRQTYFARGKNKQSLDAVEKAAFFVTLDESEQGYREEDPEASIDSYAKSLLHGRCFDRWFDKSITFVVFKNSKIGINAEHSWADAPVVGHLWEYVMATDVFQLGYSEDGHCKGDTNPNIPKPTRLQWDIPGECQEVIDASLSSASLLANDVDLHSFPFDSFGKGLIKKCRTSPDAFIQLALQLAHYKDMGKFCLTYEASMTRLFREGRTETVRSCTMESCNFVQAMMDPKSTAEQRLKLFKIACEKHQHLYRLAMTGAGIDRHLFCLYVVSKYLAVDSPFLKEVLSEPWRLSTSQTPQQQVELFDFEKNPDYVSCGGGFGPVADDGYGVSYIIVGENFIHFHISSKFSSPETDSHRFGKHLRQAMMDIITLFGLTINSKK

[3] = SUPPLEMENTARY: Lipophilicity (log D) Determination by high-throughput shake-flask; format: physicochemical; conditions: octanol/water
[4] = molecular target: T2, Carnitine O-palmitoyltransferase 1, muscle isoform (Homo sapiens, UniProt Q92523); assay: SUPPLEMENTARY: Inhibition of Carnitine palmitoyltransferase 1, muscle isoform; parameters: species or system Muscle tissue
T2 sequence (Q92523 whole entry): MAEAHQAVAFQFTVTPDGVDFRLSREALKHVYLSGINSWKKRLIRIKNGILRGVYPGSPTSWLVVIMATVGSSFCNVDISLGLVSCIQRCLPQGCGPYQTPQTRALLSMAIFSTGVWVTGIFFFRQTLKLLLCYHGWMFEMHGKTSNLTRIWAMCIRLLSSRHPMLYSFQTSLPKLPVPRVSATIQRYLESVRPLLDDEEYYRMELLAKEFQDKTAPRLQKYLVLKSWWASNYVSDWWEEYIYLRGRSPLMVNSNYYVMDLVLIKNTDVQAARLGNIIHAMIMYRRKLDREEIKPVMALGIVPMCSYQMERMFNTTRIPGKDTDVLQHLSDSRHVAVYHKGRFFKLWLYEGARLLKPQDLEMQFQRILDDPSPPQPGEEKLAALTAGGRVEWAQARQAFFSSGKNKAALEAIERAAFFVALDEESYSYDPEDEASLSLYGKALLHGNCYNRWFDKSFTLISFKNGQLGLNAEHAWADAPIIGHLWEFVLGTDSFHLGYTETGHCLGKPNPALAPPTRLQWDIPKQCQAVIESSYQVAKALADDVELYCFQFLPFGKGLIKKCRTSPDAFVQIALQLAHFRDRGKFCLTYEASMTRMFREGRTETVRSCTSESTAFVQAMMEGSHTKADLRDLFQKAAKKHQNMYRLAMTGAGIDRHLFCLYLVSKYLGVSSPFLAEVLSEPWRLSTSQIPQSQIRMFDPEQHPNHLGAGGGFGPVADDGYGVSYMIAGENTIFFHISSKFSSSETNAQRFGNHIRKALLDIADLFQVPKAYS

[5] = molecular target: T3, Carnitine O-palmitoyltransferase 2, mitochondrial (Homo sapiens, UniProt P23786); assay: (§1) SUPPLEMENTARY: Inhibition of Carnitine palmitoyltransferase 2
T3 sequence (P23786 whole entry): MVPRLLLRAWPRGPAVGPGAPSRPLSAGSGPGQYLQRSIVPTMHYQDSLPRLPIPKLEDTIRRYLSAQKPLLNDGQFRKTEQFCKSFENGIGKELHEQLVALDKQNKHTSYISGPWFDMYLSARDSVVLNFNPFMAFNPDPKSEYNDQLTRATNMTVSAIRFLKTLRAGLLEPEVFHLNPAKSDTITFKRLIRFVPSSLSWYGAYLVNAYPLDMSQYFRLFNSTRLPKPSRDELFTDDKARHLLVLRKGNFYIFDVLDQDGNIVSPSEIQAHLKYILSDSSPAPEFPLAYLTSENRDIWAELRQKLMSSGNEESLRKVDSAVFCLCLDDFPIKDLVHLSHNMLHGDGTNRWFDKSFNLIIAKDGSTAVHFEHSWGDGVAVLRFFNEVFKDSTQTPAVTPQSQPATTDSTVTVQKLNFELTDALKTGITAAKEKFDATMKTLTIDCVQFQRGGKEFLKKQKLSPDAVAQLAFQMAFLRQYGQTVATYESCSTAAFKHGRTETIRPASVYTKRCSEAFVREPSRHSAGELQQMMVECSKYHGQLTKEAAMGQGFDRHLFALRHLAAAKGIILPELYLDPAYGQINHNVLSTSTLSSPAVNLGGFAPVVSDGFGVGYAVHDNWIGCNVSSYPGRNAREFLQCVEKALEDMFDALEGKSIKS

[6] = molecular target: T4, Carnitine O-palmitoyltransferase 2, mitochondrial (Rattus norvegicus, UniProt P18886); assay: as §1
T4 sequence (P18886 whole entry): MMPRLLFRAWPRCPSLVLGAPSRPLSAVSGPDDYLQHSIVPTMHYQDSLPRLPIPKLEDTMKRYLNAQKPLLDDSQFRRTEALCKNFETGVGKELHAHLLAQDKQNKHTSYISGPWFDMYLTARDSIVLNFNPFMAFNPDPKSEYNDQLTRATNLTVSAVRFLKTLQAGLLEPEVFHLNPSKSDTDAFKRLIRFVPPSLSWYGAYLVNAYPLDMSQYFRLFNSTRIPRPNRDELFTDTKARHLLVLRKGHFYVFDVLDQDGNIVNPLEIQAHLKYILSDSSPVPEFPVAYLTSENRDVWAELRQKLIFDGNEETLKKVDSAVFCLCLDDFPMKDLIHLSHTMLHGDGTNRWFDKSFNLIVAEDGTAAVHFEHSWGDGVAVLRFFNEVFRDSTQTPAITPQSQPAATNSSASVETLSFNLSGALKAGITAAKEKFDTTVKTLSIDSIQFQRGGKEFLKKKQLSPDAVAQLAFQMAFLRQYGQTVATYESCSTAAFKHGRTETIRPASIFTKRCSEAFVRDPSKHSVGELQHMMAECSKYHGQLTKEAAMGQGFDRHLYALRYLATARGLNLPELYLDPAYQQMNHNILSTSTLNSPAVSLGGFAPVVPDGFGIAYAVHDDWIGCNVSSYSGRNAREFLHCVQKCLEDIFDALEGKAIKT

[7] = SUPPLEMENTARY: Lyophilisation Solubility Assay (LYSA); format: physicochemical; conditions: read-out: Kinetic_solubility

Row | SMILES | Papp [1] | IC50 [2] | logD [3] | IC50 [4] | IC50 [5] | IC50 [6] | solubility kinetic [7]
1 | O=C(COc1ccccc1)N1CCCC[C@@H]1c1nc(-c2ccccc2)cs1 | 1.48 ×10⁻⁶ cm/s | 0.306 µM | 3.8 | > 100 µM | > 100 µM | > 100 µM | < 1 µg/mL
2 | O=C(O)c1ccc(-c2csc([C@H]3CCCCN3C(=O)COc3ccccc3)n2)cc1 | 5.18 ×10⁻⁶ cm/s | 0.496 µM | 1.09 | 29 µM | 10.6 µM | 42.1 µM | > 563 µg/mL
3 | O=C(O)c1cccc(-c2csc([C@H]3CCCCN3C(=O)COc3ccccc3)n2)c1 | 5.06 ×10⁻⁶ cm/s | 0.159 µM | 1.06 | > 100 µM | 31.8 µM | 78.6 µM | 344 µg/mL (≈ 814 µM)
4 | O=C(COc1ccccc1)N1CCCC[C@@H]1c1nc(-c2cccnc2)cs1 | 3.8 ×10⁻⁶ cm/s | 0.214 µM | 3.15 | 71.5 µM | 16.7 µM | 32.8 µM | 37 µg/mL (≈ 97.5 µM)
5 | O=C(COc1ccccc1)N1CCCC[C@@H]1c1nc(-c2ccncc2)cs1 | 3.84 ×10⁻⁶ cm/s | 0.265 µM | 2.95 | > 100 µM | 8.32 µM | 31.6 µM | 39 µg/mL (≈ 103 µM)
6 | COc1ccc(Cl)cc1S(=O)(=O)N1CCc2c(C)cc(C(=O)Nc3ccc(CC(=O)O)cc3)cc21 | 3.07 ×10⁻⁶ cm/s | 0.238 µM | 0.62 | 0.447 µM | 98.4 µM | > 100 µM | 37 µg/mL (≈ 71.8 µM)
7 | O=C(O)c1cccc(-c2nc([C@H]3CCCCN3C(=O)COc3ccccc3)cs2)c1 | 2.35 ×10⁻⁶ cm/s | 0.529 µM | 0.92 | 95.9 µM | 23 µM | > 100 µM | > 511 µg/mL
8 | CS(=O)(=O)c1ccc(-c2csc([C@H]3CCCCN3C(=O)COc3ccccc3)n2)cc1 | 2.11 ×10⁻⁶ cm/s | 0.327 µM | > 3 | 6.12 µM | 1.86 µM | > 100 µM | 1 µg/mL (≈ 2.19 µM)
9 | N#Cc1ccc(-c2csc([C@H]3CCCCN3C(=O)COc3ccccc3)n2)cc1 | 1.95 ×10⁻⁶ cm/s | 0.245 µM | > 3 | > 100 µM | 41.6 µM | > 100 µM | < 1 µg/mL
10 | O=C(COc1ccccc1)N1CCCC[C@@H]1c1nc(-c2ccc(Cl)nc2)cs1 | 1.25 ×10⁻⁶ cm/s | 0.305 µM | > 3 | > 100 µM | 62.1 µM | > 100 µM | 1 µg/mL (≈ 2.42 µM)
11 | CC(=O)Nc1ccc(-c2nc([C@H]3CCCCN3C(=O)COc3ccccc3)cs2)cc1 | 1.23 ×10⁻⁶ cm/s | 0.179 µM | 3.72 | > 100 µM | > 100 µM | > 100 µM | 1 µg/mL (≈ 2.3 µM)
12 | O=C(COc1ccccc1)N1CCCC[C@@H]1c1csc(-c2ccc(C(F)(F)F)nc2)n1 | 1.31 ×10⁻⁶ cm/s | 0.985 µM | > 3 | > 100 µM | > 100 µM | > 100 µM | < 1 µg/mL

The next compounds have a lower IC50 [2] than those just listed; values first:

Row | Papp [1] | IC50 [2] | logD [3] | IC50 [4] | IC50 [5] | IC50 [6] | solubility kinetic [7] | SMILES
13 | 1.92 ×10⁻⁶ cm/s | 0.0947 µM | 0.35 | 2.08 µM | 3.45 µM | 20.5 µM | 30 µg/mL (≈ 59.2 µM) | COc1ccc(Cl)cc1S(=O)(=O)N1COc2ccc(C(=O)Nc3ccc(C(=O)O)c(F)c3)cc21
14 | 3.65 ×10⁻⁶ cm/s | 0.0798 µM | 0.48 | 4.5 µM | > 100 µM | > 100 µM | 20 µg/mL (≈ 42.5 µM) | O=C(O)Cc1ccc(NC(=O)c2ccc3c(c2)N(S(=O)(=O)c2cccc(Cl)c2)CC3)cc1
15 | 2.07 ×10⁻⁶ cm/s | 0.0605 µM | > 3 | 36 µM | 24.3 µM | 88.3 µM | 37 µg/mL (≈ 94 µM) | Cc1ccc(-c2nc([C@H]3CCCCN3C(=O)COc3ccccc3)cs2)cn1
16 | 0.3 ×10⁻⁶ cm/s | 0.108 µM | > 3 | > 100 µM | 58.9 µM | > 100 µM | 2 µg/mL (≈ 4.88 µM) | COc1ccc(-c2nc([C@H]3CCCCN3C(=O)COc3ccccc3)cs2)cn1
17 | 4.83 ×10⁻⁶ cm/s | 0.108 µM | > 3 | > 100 µM | > 100 µM | > 100 µM | 18 µg/mL (≈ 47.4 µM) | O=C(COc1ccccc1)N1CCCC[C@@H]1c1csc(-c2ccccn2)n1
